Patent publication US12194043B2, “Uridine phosphorylase inhibitors to treat or prevent pulmonary disease” (Tosk, Inc., priority 2020, dated 2025)
“Also recorded” adds a separate entry of the source.

Experiments:
[1] = Elimination t1/2 of Compound 1 in mice; conditions: mouse, in vivo
[2] = test system: C57BL/6 male mice treated with bleomycin (pulmonary fibrosis); assay: Bleomycin/pulmonary fibrosis study, lung histology (Masson's trichrome, Ashcroft fibrosis grading); type: in vivo; conditions: bleomycin OA day 0, 60 mg/kg IP BID days 7 through 20; for statistical significance of the decrease in fibrosis vs dosing vehicle: SPSS version 20
Description: FIG. 2. Figure is a chart providing histology scores for pulmonary tissue from mice treated with bleomycin (a well characterized lung toxin) and either dosing vehicle, UR, or TK-112690.
Thirty-three C57BL/6 male mice, 10-14 weeks at study initiation, were acclimatized for least 3 days. The mouse has been selected as is referenced in the literature as a representative species of choice for this experimental animal model. During acclimation and throughout the entire study duration, animals were housed within a limited access rodent facility and kept in groups of a maximum of 4 mice per cage. Mice were housed in polypropylene cages with solid bottoms and wood shavings or corn Cobb as bedding material. Animals were provided ad libitum with a commercial rodent diet and had free access to drinking water that is supplied to each cage via polyethylene bottles. The automatically controlled environmental conditions was set to maintain temperature at 20-26° C. with a relative humidity (RH) of 30-70%, a 12:12 hour light: dark cycle, and 10-15 air changes/hour in the study room. Animals were given a unique animal identification tail mark as a means of identification. This number also appeared on a cage card, which is visible on the front of each cage. The cage card also contains the study and group numbers, route of administration, gender, study director and arrival date.
Animals were randomly assigned to cages on arrival. Animals were assigned to treatment groups prior to treatment initiation. At study termination, surviving animals were weighed prior to euthanasia. Euthanasia was performed via anesthesia overdose and exsanguination.
The table below lists the experimental group(s) comprising the study.
Disease Induction. 75 uL of Bleomycin (section 4.5.) was administered on day 0 via oropharyngeal aspiration (O.A.). The mice were anesthetized via isoflurane/oxygen and suspended by their cranial incisors on a thin wire from an angled stand. The tongue was be gently held from the mouth using blunt forceps to visualize the base of the tongue and the pharynx. Bleomycin/saline suspension was pipetted onto posterior pharynx. Nostrils will be held gently closed. Respiration was monitored to ensure the suspension is fully aspirated.
Treatment. Groups 3 and 4 were treated via intraperitoneal (IP) injection at a dosing volume of 10 ml/kg twice daily, 6-8 hours between doses, from days 7 through 20.
Observations and Examinations. […]
Histology. […] Disease severity and collagen levels were assessed by the Ashcroft fibrosis grading system.
The resulting data were analyzed by SPSS, version 20.

plasma UR = assay: Plasma UR concentration versus plasma Compound 1 concentration after continuous infusion via sc implanted osmotic pumps; type: in vivo; conditions: BDF-1 male mice; for effect on plasma UR: constant-rate sc infusion 667, 833 or 3000 mg/kg/day, plasma at 72 h or 24 h
Method: Solutions of Compound I were prepared at a concentration of 500 mg/mL in sterile PBS. Osmotic pumps (ALZET® micro-osmotic pump 2001D and 1003D, Alza Co) were loaded with 200 μL (2001D osmotic pump) and/or 100 μL (1003D osmotic pump) of TK-112690 solution.
BDF-1 male mice (n=6) were treated with a constant-rate infusion of 667, 833 or 3000 mg/kg/day doses of Compound I delivered via subcutaneously implanted osmotic pumps. Animals were anesthetized with 100 mg/kg ketamine prior to pump implantation. Surgical scissors were used to make an approximately 1 cm incision on the dorsal surface near the shoulder blade of animals. A hemostat was used to carve out a subcutaneous tunnel toward the anterior end of animal. Osmotic pumps were placed inside the subcutaneous tunnel. Incision was sealed with wound clips.
Blood collections were performed on animals anesthetized with ketamine (ip 100 mg/kg). Blood samples from animals treated with a constant-rate infusion of TK-112690 were collected at 72 hours for 667 mg/kg/day and 833 mg/kg/day and 24 hours for 3000 mg/kg/day after pump implantation. Whole blood (˜0.8 mL) was drawn through the retro-orbital sinus using a heparin coated micro-hematocrit tube and collected into an EDTA microtainer tube. Blood samples were transferred into fresh 1.5 mL microcentrifuge tubes and centrifuged for 10 minutes at 14,000×g using an Eppendorf Minispin Plus stored in a 4° C. refrigerator. Exactly 0.4 mL of plasma was transferred into fresh microcentrifuge tubes containing 2 μL of 10 mM 5-FU and vortexed at highest setting for approximately 5 seconds. The final 50 μM concentration of 5-FU served as an internal standard. Animals were sacrificed by cervical dislocation and properly disposed.
Blood samples from animals treated with a constant-rate infusion of compound I were collected at 72 hours for 667 mg/kg/day and 833 mg/kg/day and 24 hours for 3000 mg/kg/day after pump implantation. […]
A solid-phase extraction (SPE) of analytes (UR, Compound I and 5-FU) from plasma was conducted before HPLC analysis. […] Samples were transferred into fresh HPLC vials and analyzed. […]

[3] = cited: Deng et al., Science 2017; cited from earlier work

| SMILES | half-life [1] [h] | less fibrosis (histology score) than mice treated with the dosing vehicle [2] [%] | statistical significance of the decrease in fibrosis vs dosing vehicle [2] | effect on plasma UR (plasma UR) | effect on plasma UR (plasma UR; listed as TK-112690) | slope of regression line, plasma UR concentration vs plasma Compound 1 concentration (plasma UR; continuous infusion of various amounts) | elimination t1/2 [3] |
| --- | --- | --- | --- | --- | --- | --- | --- |
| Cc1cn2c(nc1=O)O[C@H]1[C@H](O)[C@@H](CO)O[C@H]12 [Compound 1] | 1 to 2 | 30 | statistically significant | elevate plasma UR in a linear fashion | elevate plasma UR in a linear fashion; also recorded: associated with higher levels of UR | 0.010 |  |
| O=c1ccn([C@@H]2O[C@H](CO)[C@@H](O)[C@H]2O)c(=O)[nH]1 [UR, uridine] |  | 7 | not statistically significant |  |  |  | only a few minutes |
